According to patent publication US20100297020A1, “PHOSPHORYLATED AND PHOSPHONATED PYRONE ANALOGS FOR THERAPEUTIC TREATMENT” (Limerick Biopharma, Inc., priority 2008, published 2010):

Key:
[1] = system: BB19 cells, human BCECs (brain capillary endothelial cells); assay: Cyclosporin uptake assay; format: cell-based; details: 0.1 μM test compound; 1 hour incubation; 0.1 µM
Procedure: (§1) BB19 cells, human BCECs (brain capillary endothelial cells) immortalized with the E6E7 genes of human papilloma virus, were kindly provided from Jacques G. Prudhomme, Department of Biology, University of California, Riverside, U.S.A. The cells were cultured as monolayer culture in Amniomax™-C100 basal medium (catalog number 17001-157) with Amniomax™-C100 supplement (catalog number 12556-049) (Invitrogen, Basel, CH).
(§2) Cells were seeded onto culture surfaces precoated with 10 μg/cm^2 rat tail collagen type I (BD Bioscience, Allschwil, CH) at a density of approximately 50′000 cells/cm^2 and were cultured in an incubator at 37° C. with 5% CO2, 95% fresh air and saturated humidity. For uptake assays, cells were seeded on precoated 96-well plates. Assays were performed at confluency, after 6 days in culture.
(§3) BB19 cells were seeded 50′000 cells/cm^2 on 96-well plates (Falcon) and incubated under condition described above for 6 days. Before starting the assay, cells were washed 2 times with pre-warmed Dulbecco's MEM with Glutamax-I (catalog number 61965) (Invitrogen AG, Basel, CH), supplemented with 1% non essential amino acids, 1% sodium pyruvate, 50 μg/ml gentamycin (Invitrogen AG) (DMEM). Cells were then incubated for 15 min at 37° C. and 120 rpm in DMEM with or without the specified concentrations of test compounds under investigation. After this pre-incubation, cells were incubated in DMEM containing [propyl-3H]-dihydro-FK506 (3H-tacrolimus, 1 μCi/ml, 34 nM) and with or without the specified concentrations of test compounds for 1 hour at 37° C. and 120 rpm. During this 1-hour incubation period, influx and efflux of the substrate, ^3H-tacrolimus, occur. After the 1-hour incubation period, assay was terminated by placing the assay plate on ice and washing the cells twice with ice-cold DMEM. Determination of cell associated ^3H-tacrolimus was performed by addition of Insta Gel and scintillation liquid to trypsinized cells followed by analysis on a scintillation counter (Packard TriCarb2000, Can berra Packard S.A.). The results are expressed as: % of control=100×[^3H-tacrolimus conc. with test compound]/[^3H-tacrolimus conc. with vehicle]
The cyclosporin uptake assay was performed similarly as described above for tacrolimus uptake assay except that ^3H-cyclosporin was used in place of ^3H-tacrolimus.

male ZDF rats = assay: 4 week study in ZDF rats (compound 2, compound 3); format: in vivo
Description: Seven week old male ZDF rats are used for the study.
Experimental Design: This study is a 4 week study Using 32 7-week old male ZDF rats, divided into 4 treatment arms (8 rats/arm).

AdrenergicA2A = target: T1, AdrenergicA2A (Homo sapiens, UniProt P08913); assay: AdrenergicA2A GTPγS functional assay; format: biochemical; details: 10 μM; compound may be / can be tested
T1 sequence (P08913 1-465): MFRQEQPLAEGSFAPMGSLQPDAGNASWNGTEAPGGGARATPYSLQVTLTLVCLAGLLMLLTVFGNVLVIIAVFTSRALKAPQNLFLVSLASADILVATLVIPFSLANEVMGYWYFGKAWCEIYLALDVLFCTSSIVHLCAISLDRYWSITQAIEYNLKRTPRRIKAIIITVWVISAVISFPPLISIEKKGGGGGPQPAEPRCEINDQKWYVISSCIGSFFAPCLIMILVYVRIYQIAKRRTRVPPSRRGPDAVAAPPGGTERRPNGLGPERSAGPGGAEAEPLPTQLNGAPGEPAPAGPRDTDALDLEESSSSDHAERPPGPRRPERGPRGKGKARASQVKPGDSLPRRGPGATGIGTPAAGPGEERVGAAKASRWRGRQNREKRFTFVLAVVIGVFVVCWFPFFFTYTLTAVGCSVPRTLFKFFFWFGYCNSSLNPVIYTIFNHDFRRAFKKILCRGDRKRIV
Procedure: The compound is additionally tested in AdenosineA1, AdrenergicA2A, DopamineD25, Histamine H1-, and μ-Opiate GTPγS functional assays using a concentration of 10 μM.
The compound may be additionally tested in AdenosineA1, AdrenergicA2A, DopamineD25, Histamine H1-, and μ-Opiate GTPγS functional assays using a concentration of 10 μM.
The compound can be additionally tested in AdenosineA1, AdrenergicA2A, DopamineD25, Histamine H1-, and μ-Opiate GTPγS functional assays using a concentration of 10 μM.

ZDF rats [2] = assay: Oral glucose tolerance test (OGTT) in ZDF rats after the 4 week study; format: in vivo; details: glucose 2 g/Kg PO; compound 2 100 mg/kg, compound 3 50 mg/kg i.p.
Procedure: Following the 4 week study described in Example 26 above, the animals were fasted for 12 hours and on day-29, pre-drug blood samples are collected and glucose level and insulin level are measured. The animals are treated intraperitoneally (i.p.) with the following compounds:
Thirty (30) minutes after the treatment, pre-glucose blood samples are collected and the animals are then dosed with glucose (2 g/Kg, PO). Tail vein blood samples are collected at 30, 60, 90 and 120 minutes. Glucose levela and insulin leveal are measured. FIG. 31 show the plasma glucose level measured during OGTT. […] FIG. 32 show the plasma insulin level measured during OGTT. Phosphonated pyrone analogs raise insulin output in response to OGTT.

[3] = system: BB19 cells, human BCECs (brain capillary endothelial cells); assay: Tacrolimus uptake assay; format: cell-based; details: Endothelial cell, 1 h, 0.1 μM test compound, 1 hour incubation, 3H-tacrolimus 34 nM, read-out: cell associated ^3H-tacrolimus uptake, % of control
Procedure: as §1, §2, §3

ZDF rats [4] = assay: Pancreas histopathology, insulin staining and TUNEL in ZDF rats; format: in vivo
Description: Pancreas samples from Example 26 are stored in 10% NBF and used in this study. All tissue samples were processed through graded alcohols, cleared in xylene and infiltrated and embedded into paraffin. For the pancreas four 4 micron sections were cut, one was stained with Hematoxylin and Eosin for histopathology, two were immunohistochemically stained with an antibody to insulin to determine beta cell mass and one was stained for apoptosis with the tunel technique.
The insulin staining procedure was performed as follows: Endogenous peroxidase activity was inhibited by incubation in 3% hydrogen peroxide. Non-specific staining was blocked with DAKO Protein Block Serum-Free (Dako, Carpinteria, Calif.). Insulin positive cells were immunohistochemically stained with a polyclonal guinea pig anti-swine insulin antibody at room temperature for 30 minutes (Dako, Carpinteria, Calif.). After incubation with primary antibody, the tissue sections were sequentially incubated with Envision+ HRP Rabbit (Dako, Carpinteria, Calif.). Staining was developed with Liquid DAB+ (Dako, Carpinteria, Calif.) and counterstained with hematoxylin.
Pancreas samples were stained for apoptosis as follows: 4 micron sections were cut and stained for TUNEL utilizing the following kit In Situ Cell Death Detection Kit, AP (Roche Applied Science, catalog 11 684 809 910).

[5] = following four weeks of daily treatment

O=c1c(O)c(-c2ccc(O)c(OCP(=O)(O)O)c2)oc2cc(O)cc(O)c12 [Compound 2, Quercetin-3′-O-methylphosphonic acid]
cell associated ^3H-cyclosporin uptake, % of control [1]: 54 % of control | plasma insulin levels (male ZDF rats; 4 weeks daily i.p., compared to vehicle treated animals): require lower insulin levels to maintain nomal glucose levels | plasma glucose levels (male ZDF rats; 4 weeks daily i.p., compound 2 100 mg/kg, compound 3 100 mg/kg day 4 and 5, 50 mg/kg day 6-28, rosiglitazone 6 mg/kg): maintains steady glucose levels | glycated hemoglobin levels (% HbA1c) at termination (male ZDF rats; compared to vehicle treated animals): lower glycated hemoglobin levels | triglycerides (male ZDF rats; day 14 and day 21, over vehicle controls): marked decreases in triglycerides | inhibition in the AdrenergicA2A assay (AdrenergicA2A): marked negative inhibition | plasma glucose level during OGTT (ZDF rats [2]): protect against hyperglycemia | activity at 0.1 µM [3]: 51% | islet cell apoptosis (ZDF rats [4]; TUNEL, following four weeks of daily treatment): decreases in islet cell apoptosis | decrease in islet vacuolar degeneration (inhibition) (ZDF rats [4]; [5]): 43% | decrease in pancreatic inflammation (inhibition) (ZDF rats [4]; [5]): 60% | ratio of insulin positive islet cells to pancreas cells (ZDF rats [4]; insulin immunohistochemistry): significantly increased
